# Laboratory results reported in paper PMC12557367, ““Precision on Two Wheels”–Structural Refinement of ^64Cu- and ^68Ga-Labeled Bicyclic Peptides Targeting Nectin‑4 for Improved Tumor Imaging: From Preclinical Development to First-in-Human Application” (Journal of Medicinal Chemistry, 2025).
# Numbered stars: 1 amine (or outer) side, 2 acyl side, 3 side chain; on linkers, the order of the positions; unused ones are H or OH. Bridge positions count the residues as written; N and C are the ends. Square brackets hold non-standard residues; d marks the D form. Peptide text beside a SMILES is read from it. * marks the point of attachment. DOTA = O=C(O)CN1CCN(CC(=O)O)CCN(CC(=O)*)CCN(CC(=O)O)CC1; TATA = O=C(CC[*:1])N1CN(C(=O)CC[*:2])CN(C(=O)CC[*:3])C1; X1 = O=C(O)CN1CCN(CC(=O)O)CCN([C@H](CCC(=O)*)C(=O)O)CC1; 1Nal = N[C@@H](Cc1cccc2ccccc12)C(=O)O; 2Nal = N[C@@H](Cc1ccc2ccccc2c1)C(=O)O; Hyp = O=C(O)[C@@H]1C[C@@H](O)CN1; hArg = N=C(N)NCCCC[C@H](N)C(=O)O; hSer = N[C@@H](CCO)C(=O)O; Nle = CCCC[C@H](N)C(=O)O
# What was measured:
# [1] = system: HT-1376 cells; assay: Saturation binding assay on intact cells; assay type: cell-based, human; details: intact HT-1376 cells, ±SD; for Kd: 60 min, PBS wash, apparent
# Protocol: For the saturation binding assay, total and nonspecific binding were determined as described above using 10 different radioligand concentrations ([…]) prepared by serial 1:1 dilution. Plots of “total binding” = f(radioligand) were analyzed by nonlinear regressions using the model of “one site-total, accounting for ligand depletion” as implemented in GraphPad Prism, and Plots of “nonspecific binding” = f(radioligand) were analyzed by linear regressions.
# [2] = Chromatographic hydrophobicity index at immobilized artificial membrane (CHI IAM7.4) by HPLC; assay type: physicochemical; details: nonlabeled peptide, pH 7.4
# Protocol: Consequently, the CHI IAM7.4 values indicate that unfavorable pharmacokinetic behavior due to nonspecific binding is not to be expected.
# All commercial reagents and solvents were used without further purification, unless otherwise specified. […] The purity of compound 5, which bears selenomethionine, was lower due to the lability to oxidation (as discussed above). The HPLC-based determination of chromatographic hydrophobicity indices at an immobilized artificial membrane was performed as previously described according to the method developed by Valko et al.
# [3] = biological target: T1, recombinant human nectin-4 (Homo sapiens, UniProt Q96NY8); assay: FA-based competitive binding assay with probe 1a; details: for Hill coefficient n: competitive binding curve, variable slope
# T1 construct: close to the value determined for the complete extracellular domain of nectin-4 (0.94 nM); purchased R&D Systems 2659-N4
# T1 sequence (Q96NY8 32-349 limits assumed): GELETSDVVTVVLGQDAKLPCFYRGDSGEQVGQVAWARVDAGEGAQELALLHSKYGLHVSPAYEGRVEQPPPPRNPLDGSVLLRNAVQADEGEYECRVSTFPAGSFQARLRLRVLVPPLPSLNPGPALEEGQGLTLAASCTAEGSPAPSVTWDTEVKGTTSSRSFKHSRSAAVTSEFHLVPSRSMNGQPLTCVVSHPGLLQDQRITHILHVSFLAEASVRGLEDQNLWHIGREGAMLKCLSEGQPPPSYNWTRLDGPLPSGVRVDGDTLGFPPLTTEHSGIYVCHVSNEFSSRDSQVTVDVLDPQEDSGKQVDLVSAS
# [4] = assay type: in vitro ADME; details: 24 h
# Protocol: Human plasma was collected as previously described. For assessing the stability in human plasma, 10 μL (10 MBq) of the labeling solution of [ ^ 64 Cu]-Cu-1e, [ ^ 64 Cu]-Cu-3a, or [ ^ 64 Cu]-Cu-4 were added to 90 μL of human plasma, and the mixture was incubated at 37 °C for up to 24 h. At distinct time points (1, 2, 4, and 24 h), an aliquot of 20 μL was withdrawn and diluted with 60 μL of a mixture named “Supersol” (composition as described above). This was followed by centrifugation at 16,100g for 2 min. The supernatant was analyzed by radio-HPLC (the same system as used for analyzing the ^64Cu-labelings).
# [5] = biological target: T1, recombinant human nectin-4; assay: Fluorescence anisotropy (FA) direct binding of fluorescent probes; details: 1 nM probe
# Excerpt: For characterizing the binding affinity of the bicyclic peptides toward nectin-4, we envisaged a fluorescence anisotropy-based competitive binding assay. Mudd et al. also used such an assay for the development of the bicycle drug conjugate BT8009. Herein, the peptidic scaffold of BT8009 was used as a basis for the required fluorescent nectin-4-ligand (probe) with either 6-TAMRA (1a) or 6-FAM (1b) being attached at the N-terminal Cys residue. […] In this context, the binding of the probe to nectin-4 was started by the addition of nectin-4, followed by continuous fluorescence measurements over 20 min. It is worth noting that a slight initial increase in the FA values could be observed for both probes (FA values at <300 s in Figure S1); however, this putative time-dependent association appeared to be too fast to analyze it. […]
# All measurements were conducted at 37 °C over 1200 s (interval of 37 s) using a Cytation 5 multimode microplate reader (BioTek Instruments, Software Gen 5) and black 96-well microplates (BRANDplates with F-bottom wells). […] The FA (r) was calculated by Gen 5 software from the measured parallel and perpendicular fluorescence intensities (I ∥ and I ⊥, respectively) according to eq using a G factor of 0.87 (preset value). r=I∥−G×I⊥/I∥+2G×I⊥ 1 […]
# [6] = biological target: T2, recombinant N-terminal Ig-like V domain of nectin-4 (Homo sapiens, UniProt Q96NY8); assay: FA direct binding of probe 1a to Ig-like V domain
# T2 construct: probe 1a to the N-terminal Ig-like V domain of nectin-4 (Acro Biosystems, NE4-H82Ea); purchased Acro Biosystems NE4-H82Ea
# T2 sequence (Q96NY8 32-144 limits assumed): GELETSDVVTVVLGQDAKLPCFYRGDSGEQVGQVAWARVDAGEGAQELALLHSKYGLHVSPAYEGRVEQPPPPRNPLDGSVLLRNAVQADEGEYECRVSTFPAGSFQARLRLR
# Excerpt: For direct binding of probe 1a to the N-terminal Ig-like V domain of nectin-4 (Acro Biosystems, NE4-H82Ea), the same procedure as described previously was applied.
# [7] = biological target: nectin-4; parameters: method as in Duan et al.; details: SPR, buffer pH 4.0; ref Duan et al.; read-out: binding affinity; cited from earlier work
SMILES,CHI IAM7.4 [2],Hill coefficient n [3],chemical and proteolytic stability in human plasma [4],dynamic range (ΔFA = mA of bound probe – mA of free probe) [5],Kd [6],factor less potent than DOTA conjugate 1f ([3]; FA K d ratio),Kd ([1]; ^64Cu-labeled ligand),B max (fmol/mg) ([1]; ^64Cu-labeled ligand),Kd ([1]; ^68Ga-labeled ligand),B max (fmol/mg) ([1]; ^68Ga-labeled ligand),Kd [7]
CSCC[C@@H]1NC(=O)[C@@H]2CSCCC(=O)N3CN(CN(C3)C(=O)CCSC[C@H](NC(=O)c3ccc(C(=O)O)c(-c4c5ccc(=[N+](C)C)cc-5oc5cc(N(C)C)ccc45)c3)C(=O)N3CCC[C@H]3C(=O)N[C@@H](Cc3cccc4ccccc34)C(=O)N[C@H](CC(=O)O)C(=O)N2)C(=O)CCSC[C@@H](C(N)=O)NC(=O)[C@H](Cc2c[nH]c3ccccc23)NC(=O)[C@@H]2C[C@@H](O)CN2C(=O)[C@@H]2CCCN2C(=O)[C@H]([C@@H](C)O)NC(=O)[C@H](CO)NC(=O)[C@H](Cc2c[nH]c3ccccc23)NC(=O)[C@H](CC(=O)O)NC(=O)[C@H](CCCCNC(=N)N)NC1=O [1a],,,,100 (±3) mA,1.3 nM,,,,,,
COCC[C@@H]1NC(=O)[C@@H]2CSCCC(=O)N3CN(CN(C3)C(=O)CCSC[C@H](NC(=O)CC[C@H](C(=O)O)N3CCN(CC(=O)O)CCN(CC(=O)O)CC3)C(=O)N3CCC[C@H]3C(=O)N[C@@H](Cc3cccc4ccccc34)C(=O)N[C@H](CC(=O)O)C(=O)N2)C(=O)CCSC[C@@H](C(N)=O)NC(=O)[C@H](Cc2c[nH]c3ccccc23)NC(=O)[C@@H]2C[C@@H](O)CN2C(=O)[C@@H]2CCCN2C(=O)[C@H]([C@@H](C)O)NC(=O)[C@H](CO)NC(=O)[C@H](Cc2c[nH]c3ccccc23)NC(=O)[C@H](CC(=O)O)NC(=O)[C@H](CCCCNC(=N)N)NC1=O [compound 4] (X1-CP[1Nal][dD]C[hSer](Me)[hArg]DWSTP[Hyp]WC-NH2; linker 1-5-15 via TATA),20.2,1.72,No signs of degradation,,,,6.06 nM,,13.1 nM,,

# Second part, led by results:
CHI IAM7.4 [2],Hill coefficient n [3],chemical and proteolytic stability in human plasma [4],dynamic range (ΔFA = mA of bound probe – mA of free probe) [5],Kd [6],factor less potent than DOTA conjugate 1f ([3]; FA K d ratio),SMILES,Kd ([1]; ^64Cu-labeled ligand),B max (fmol/mg) ([1]; ^64Cu-labeled ligand),Kd ([1]; ^68Ga-labeled ligand),B max (fmol/mg) ([1]; ^68Ga-labeled ligand),Kd [7]
19.9,1.52,No signs of degradation,,,,CSCC[C@@H]1NC(=O)[C@@H]2CSCCC(=O)N3CN(CN(C3)C(=O)CCSC[C@H](NC(=O)CC[C@H](C(=O)O)N3CCN(CC(=O)O)CCN(CC(=O)O)CC3)C(=O)N3CCC[C@H]3C(=O)N[C@@H](Cc3cccc4ccccc34)C(=O)N[C@H](CC(=O)O)C(=O)N2)C(=O)CCSC[C@@H](C(N)=O)NC(=O)[C@H](Cc2c[nH]c3ccccc23)NC(=O)[C@@H]2C[C@@H](O)CN2C(=O)[C@@H]2CCCN2C(=O)[C@H]([C@@H](C)O)NC(=O)[C@H](CO)NC(=O)[C@H](Cc2c[nH]c3ccccc23)NC(=O)[C@H](CC(=O)O)NC(=O)[C@H](CCCCNC(=N)N)NC1=O [1e],7.15 nM,780 (±23.9) fmol/mg,8.7 nM,1345 (±52.5) fmol/mg,
20.6,1.30,No signs of degradation,,,,CCCC[C@@H]1NC(=O)[C@@H]2CSCCC(=O)N3CN(CN(C3)C(=O)CCSC[C@H](NC(=O)CC[C@H](C(=O)O)N3CCN(CC(=O)O)CCN(CC(=O)O)CC3)C(=O)N3CCC[C@H]3C(=O)N[C@@H](Cc3cccc4ccccc34)C(=O)N[C@H](CC(=O)O)C(=O)N2)C(=O)CCSC[C@@H](C(N)=O)NC(=O)[C@H](Cc2c[nH]c3ccccc23)NC(=O)[C@@H]2C[C@@H](O)CN2C(=O)[C@@H]2CCCN2C(=O)[C@H]([C@@H](C)O)NC(=O)[C@H](CO)NC(=O)[C@H](Cc2c[nH]c3ccccc23)NC(=O)[C@H](CC(=O)O)NC(=O)[C@H](CCCCNC(=N)N)NC1=O [3a] (X1-CP[1Nal][dD]C[Nle][hArg]DWSTP[Hyp]WC-NH2; linker 1-5-15 via TATA),,,,,
,2.53,,,,26 fold,"CSCC[C@@H]1NC(=O)[C@@H]2CSCCC(=O)N3CN(CN(C3)C(=O)CCSC[C@H](NC(=O)CN3CCN(CC(=O)O)CCN(CC(=O)O)CCN(CC(=O)O)CC3)C(=O)N3CCC[C@H]3C(=O)N[C@@H](Cc3ccc4ccccc4c3)C(=O)N[C@H](CC(=O)O)C(=O)N2)C(=O)CCSC[C@@H](C(=O)O)NC(=O)[C@H](Cc2c[nH]c3ccccc23)NC(=O)[C@@H]2C[C@@H](O)CN2C(=O)[C@@H]2CCCN2C(=O)[C@H]([C@@H](C)O)NC(=O)[C@H](CO)NC(=O)[C@H](Cc2c[nH]c3ccccc23)NC(=O)[C@H](CC(=O)O)NC(=O)[C@H](CCCNC(=N)N)NC1=O [8d, reference compound] ({DOTA}-CP[2Nal][dD]CMRDWSTP[Hyp]WC-OH; linker 1-5-15 via TATA)",,,222 nM,291 (±77.9) fmol/mg,23.7 nM
